Reference: PubChem BioAssay (NCI)
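Briefly, cells in 96-well plates were exposed to five compound concentrations for 48 h, and endpoints were estimated by linear interpolation. At the TGI there is no net growth.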

Tests used:
Assay in all cases: growth of human tumour cells (NCI), 48 h
EKVX NSCLC = system: EKVX NSCLC
HL-60(TB) leukemia = system: HL-60(TB) leukemia
HCC-2998 colon = system: HCC-2998 colon
HOP-62 NSCLC = system: HOP-62 NSCLC
A498 renal = system: A498 renal
RPMI-8226 leukemia = system: RPMI-8226 leukemia
MDA-MB-435 = system: MDA-MB-435
SK-MEL-5 melanoma = system: SK-MEL-5 melanoma
HOP-92 NSCLC = system: HOP-92 NSCLC
MDA-N = system: MDA-N
UACC-62 melanoma = system: UACC-62 melanoma
NCI-H23 lung = system: NCI-H23 lung
SK-MEL-28 melanoma = system: SK-MEL-28 melanoma
SK-MEL-2 melanoma = system: SK-MEL-2 melanoma
ACHN renal = system: ACHN renal
786-0 renal = system: 786-0 renal
HCT-15 colon = system: HCT-15 colon
LOX IMVI melanoma = system: LOX IMVI melanoma
OVCAR-3 ovarian = system: OVCAR-3 ovarian
MDA-MB-231 breast = system: MDA-MB-231 breast
SF-539 CNS = system: SF-539 CNS
MCF7 breast = system: MCF7 breast
NCI-H522 lung = system: NCI-H522 lung
BT-549 breast = system: BT-549 breast
UACC-257 melanoma = system: UACC-257 melanoma
KM12 colon = system: KM12 colon
SNB-75 CNS = system: SNB-75 CNS
CCRF-CEM leukemia = system: CCRF-CEM leukemia
NCI/ADR-RES ovarian = system: NCI/ADR-RES ovarian
SF-295 CNS = system: SF-295 CNS
U251 CNS = system: U251 CNS
SN12C renal = system: SN12C renal
RXF 393 renal = system: RXF 393 renal
PC-3 prostate = system: PC-3 prostate
K-562 leukemia = system: K-562 leukemia
OVCAR-5 ovarian = system: OVCAR-5 ovarian
CAKI-1 renal = system: CAKI-1 renal
SR leukemia = system: SR leukemia
HS 578T breast = system: HS 578T breast
UO-31 renal = system: UO-31 renal
MALME-3M melanoma = system: MALME-3M melanoma
IGROV1 ovarian = system: IGROV1 ovarian
M14 melanoma = system: M14 melanoma
MOLT-4 leukemia = system: MOLT-4 leukemia
NCI-H460 lung = system: NCI-H460 lung
T-47D breast = system: T-47D breast
SNB-19 CNS = system: SNB-19 CNS
COLO 205 colon = system: COLO 205 colon
OVCAR-4 ovarian = system: OVCAR-4 ovarian
SW-620 colon = system: SW-620 colon
SF-268 CNS = system: SF-268 CNS
A549 NSCLC = system: A549 NSCLC
NCI-H226 lung = system: NCI-H226 lung
HCT-116 colon = system: HCT-116 colon
DU-145 prostate = system: DU-145 prostate
OVCAR-8 ovarian = system: OVCAR-8 ovarian
HT29 colon = system: HT29 colon
SK-OV-3 ovarian = system: SK-OV-3 ovarian
TK-10 renal = system: TK-10 renal

CCOc1ccc2c(C)cc(=O)oc2c1
TGI (EKVX NSCLC): > 100 µM | TGI (HL-60(TB) leukemia): > 100 µM | TGI (HCC-2998 colon): > 100 µM | TGI (HOP-62 NSCLC): > 100 µM | TGI (A498 renal): > 100 µM | TGI (RPMI-8226 leukemia): > 100 µM | TGI (MDA-MB-435): > 100 µM | TGI (SK-MEL-5 melanoma): > 100 µM | TGI (HOP-92 NSCLC): > 100 µM | TGI (MDA-N): > 100 µM | TGI (UACC-62 melanoma): > 100 µM | TGI (NCI-H23 lung): > 100 µM | TGI (SK-MEL-28 melanoma): > 100 µM | TGI (SK-MEL-2 melanoma): > 100 µM | TGI (ACHN renal): > 100 µM | TGI (786-0 renal): > 100 µM | TGI (HCT-15 colon): > 100 µM | TGI (LOX IMVI melanoma): > 100 µM | TGI (OVCAR-3 ovarian): > 100 µM | TGI (MDA-MB-231 breast): > 100 µM | TGI (SF-539 CNS): > 100 µM | TGI (MCF7 breast): > 100 µM | TGI (NCI-H522 lung): > 100 µM | TGI (BT-549 breast): > 100 µM | TGI (UACC-257 melanoma): > 100 µM | TGI (KM12 colon): > 100 µM | TGI (SNB-75 CNS): > 100 µM | TGI (CCRF-CEM leukemia): > 100 µM | TGI (NCI/ADR-RES ovarian): > 100 µM | TGI (SF-295 CNS): > 100 µM | TGI (U251 CNS): > 100 µM | TGI (SN12C renal): > 100 µM | TGI (RXF 393 renal): > 100 µM | TGI (PC-3 prostate): > 100 µM | TGI (K-562 leukemia): > 100 µM | TGI (OVCAR-5 ovarian): > 100 µM | TGI (CAKI-1 renal): > 100 µM | TGI (SR leukemia): > 100 µM | TGI (HS 578T breast): > 100 µM | TGI (UO-31 renal): > 100 µM | TGI (MALME-3M melanoma): > 100 µM | TGI (IGROV1 ovarian): > 100 µM | TGI (M14 melanoma): > 100 µM | TGI (MOLT-4 leukemia): > 100 µM | TGI (NCI-H460 lung): > 100 µM | TGI (T-47D breast): > 100 µM | TGI (SNB-19 CNS): > 100 µM | TGI (COLO 205 colon): > 100 µM | TGI (OVCAR-4 ovarian): > 100 µM | TGI (SW-620 colon): > 100 µM | TGI (SF-268 CNS): > 100 µM | TGI (A549 NSCLC): > 100 µM | TGI (NCI-H226 lung): > 100 µM | TGI (HCT-116 colon): > 100 µM | TGI (DU-145 prostate): > 100 µM | TGI (OVCAR-8 ovarian): > 100 µM | TGI (HT29 colon): > 100 µM

N#CC1(Nc2ccc(-c3ccc(NC4(C#N)CCCC4)cc3)cc2)CCCC1
TGI (EKVX NSCLC): > 100 µM | TGI (HL-60(TB) leukemia): > 100 µM | TGI (HCC-2998 colon): > 100 µM | TGI (HOP-62 NSCLC): > 100 µM | TGI (A498 renal): > 100 µM | TGI (RPMI-8226 leukemia): > 100 µM | TGI (MDA-MB-435): > 100 µM | TGI (SK-MEL-5 melanoma): > 100 µM | TGI (HOP-92 NSCLC): > 100 µM | TGI (MDA-N): > 100 µM | TGI (UACC-62 melanoma): > 100 µM | TGI (NCI-H23 lung): > 100 µM | TGI (SK-MEL-28 melanoma): > 100 µM | TGI (SK-MEL-2 melanoma): > 100 µM | TGI (ACHN renal): > 100 µM | TGI (786-0 renal): > 100 µM | TGI (HCT-15 colon): > 100 µM | TGI (LOX IMVI melanoma): > 100 µM | TGI (OVCAR-3 ovarian): > 100 µM | TGI (MDA-MB-231 breast): > 100 µM | TGI (SF-539 CNS): 78.2 µM | TGI (MCF7 breast): > 100 µM | TGI (NCI-H522 lung): > 100 µM | TGI (BT-549 breast): > 100 µM | TGI (UACC-257 melanoma): > 100 µM | TGI (KM12 colon): > 100 µM | TGI (SNB-75 CNS): > 100 µM | TGI (CCRF-CEM leukemia): 61.2 µM | TGI (NCI/ADR-RES ovarian): > 100 µM | TGI (SF-295 CNS): > 100 µM | TGI (U251 CNS): > 100 µM | TGI (SN12C renal): > 100 µM | TGI (RXF 393 renal): > 100 µM | TGI (PC-3 prostate): > 100 µM | TGI (K-562 leukemia): > 100 µM | TGI (OVCAR-5 ovarian): > 100 µM | TGI (CAKI-1 renal): > 100 µM | TGI (SR leukemia): > 100 µM | TGI (HS 578T breast): > 100 µM | TGI (UO-31 renal): > 100 µM | TGI (MALME-3M melanoma): > 100 µM | TGI (IGROV1 ovarian): > 100 µM | TGI (M14 melanoma): > 100 µM | TGI (SK-OV-3 ovarian): > 100 µM | TGI (MOLT-4 leukemia): > 100 µM | TGI (NCI-H460 lung): > 100 µM | TGI (T-47D breast): > 100 µM | TGI (SNB-19 CNS): > 100 µM | TGI (COLO 205 colon): > 100 µM | TGI (OVCAR-4 ovarian): > 100 µM | TGI (SW-620 colon): > 100 µM | TGI (SF-268 CNS): > 100 µM | TGI (A549 NSCLC): > 100 µM | TGI (TK-10 renal): > 100 µM | TGI (NCI-H226 lung): > 100 µM | TGI (HCT-116 colon): > 100 µM | TGI (DU-145 prostate): > 100 µM | TGI (OVCAR-8 ovarian): > 100 µM | TGI (HT29 colon): > 100 µM
